From US20260022142A1, “MACROCYCLIC IMMUNOMODULATORS” (Bristol-Myers Squibb Company, priority 2022, published 2026)
Bridge positions count the residues as written; N and C are the ends. Square brackets hold non-standard residues; d marks the D form. Peptide text beside a SMILES is read from it. * marks the point of attachment. Bip = N[C@@H](Cc1ccc(-c2ccccc2)cc1)C(=O)O; Phe(4-CN) = N#Cc1ccc(C[C@H](N)C(=O)O)cc1; Morpholine(3S-CO) = O=C(O)[C@@H]1COCCN1; Phe(3-Me) = Cc1cccc(C[C@H](N)C(=O)O)c1; Val(3-OH) = CC(C)(O)[C@H](N)C(=O)O; 4Pal = N[C@@H](Cc1ccncc1)C(=O)O; Cha = N[C@@H](CC1CCCCC1)C(=O)O; Cit = NC(=O)NCCC[C@H](N)C(=O)O; Carboxymethyl = O=C(O)C*; Orn = NCCC[C@H](N)C(=O)O; Pra = C#CC[C@H](N)C(=O)O; Aun = NCCCCCCCCCCC(=O)O; Dab = NCC[C@H](N)C(=O)O; Dap = NC[C@H](N)C(=O)O; AEEA = NCCOCCOCC(=O)O

Biological target: T1, PD-1/PD-L1 interaction (PE-labeled human PD-L1-Ig binding to Jurkat cell line over-expressing human PD-1) (Homo sapiens, UniProt Q15116)
T1 construct: expressed in transfected cells; host or cells: Jurkat
Assay: Jurkat-PD-1 Cell Binding High-Content Screening Assay (CBA)
Format: cell-based
Details: Jurkat cell line over-expressing human PD-1; PE-labeled PD-L1-Ig 20 nM final; read-out: Jurkat hPD1-PDL1 IC50
Summary of the method: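 Binding of fluorescent PD-L1-Ig (phycoerythrin on Ig tag, 20 nM final, 1 h) measured by high-content imaging of fixed, Hoechst-counterstained Jurkat-hPD-1 cells. Compound added 2 h at 37° C beforehand, in DMEM with 10% fetal calf serum.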

T1 sequence (Q15116 25-288): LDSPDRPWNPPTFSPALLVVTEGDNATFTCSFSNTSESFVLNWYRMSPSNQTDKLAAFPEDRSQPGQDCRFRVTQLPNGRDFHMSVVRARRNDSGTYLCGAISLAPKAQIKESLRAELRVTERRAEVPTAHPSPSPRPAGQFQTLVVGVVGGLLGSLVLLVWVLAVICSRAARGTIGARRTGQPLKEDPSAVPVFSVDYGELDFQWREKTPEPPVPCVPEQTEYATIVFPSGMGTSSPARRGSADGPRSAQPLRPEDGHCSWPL

IC50	Structure (SMILES)
11 nM	Cc1cccc(C[C@@H]2NC(=O)[C@H](CC(=O)O)NC(=O)[C@H](Cc3ccc(OCC(=O)O)cc3)NC(=O)[C@H](CN)NC(=O)CSC[C@@H](C(=O)N[C@@H](CCC(=O)O)C(=O)NCCCCCCCCCCC(=O)O)NC(=O)[C@H]([C@@H](C)O)NC(=O)[C@H](C(C)C)NC(=O)[C@H](CC3CCCCC3)NC(=O)[C@H](CCN)NC(=O)[C@@H](CC(C)C)NC(=O)[C@H](CCCN)NC(=O)[C@H](CCC(=O)O)NC(=O)[C@H](Cc3ccc(-c4ccccc4)cc3)NC(=O)[C@H](C(C)C)NC2=O)c1 [Compound 1045] ({CH2CO}-[Dap]Y(Carboxymethyl)D[Phe(3-Me)]V[Bip]E[Orn][dL][Dab][Cha]VTCE[Aun]-OH; thioether N-14)
18.9 nM	Cc1cccc(C[C@@H]2NC(=O)[C@H](CC(=O)O)NC(=O)[C@H](Cc3ccc(OCC(=O)O)cc3)NC(=O)[C@H](CC(N)=O)NC(=O)CSC[C@@H](C(=O)N[C@@H](CCN)C(=O)NCCCCCCCCCCC(=O)O)NC(=O)[C@H]([C@@H](C)O)NC(=O)[C@H](C(C)C)NC(=O)[C@H](CC3CCCCC3)NC(=O)[C@H](CCN)NC(=O)[C@@H](CC(C)C)NC(=O)[C@H](CCCN)NC(=O)[C@H](Cc3ccc(O)cc3)NC(=O)[C@H](Cc3ccc(-c4ccccc4)cc3)NC(=O)[C@H](C(C)C)NC2=O)c1 [Compound 2739] ({CH2CO}-NY(Carboxymethyl)D[Phe(3-Me)]V[Bip]Y[Orn][dL][Dab][Cha]VTC[Dab][Aun]-OH; thioether N-14)
304 nM	CC(C)C[C@@H]1NC(=O)[C@H](Cc2c[nH]c3ccccc23)NC(=O)[C@H](CC(=O)O)NC(=O)[C@H](Cc2ccncc2)NC(=O)[C@H](Cc2ccc(OCC(=O)O)cc2)NC(=O)CSC[C@@H](C(=O)N2CCOC[C@H]2C(=O)NCCCCCCCCCCC(=O)O)NC(=O)[C@H](CCCNC(N)=O)NC(=O)[C@H](C(C)C)NC(=O)[C@H](CC2CCCCC2)NC(=O)[C@H](CCN)NC(=O)[C@@H](CC(C)C)NC(=O)[C@H](CCCN)NC(=O)[C@H](C(C)C)NC(=O)[C@H](Cc2ccc(-c3ccccc3)cc2)NC1=O [Compound 1227] ({CH2CO}-Y(Carboxymethyl)[4Pal]DWL[Bip]V[Orn][dL][Dab][Cha]V[Cit]C[Morpholine(3S-CO)][Aun]-OH; thioether N-14)
7.3 nM	Cc1cccc(C[C@@H]2NC(=O)[C@H](CC(=O)O)NC(=O)[C@H](Cc3ccc(OCC(=O)O)cc3)NC(=O)[C@H](Cc3ccc(C#N)cc3)NC(=O)CSC[C@@H](C(=O)N[C@@H](CCN)C(=O)NCCOCCOCC(=O)NCCCCCCCCCCC(=O)O)NC(=O)[C@H](CO)NC(=O)[C@H](C(C)(C)O)NC(=O)[C@H](CC3CCCCC3)NC(=O)[C@H](CCN)NC(=O)[C@@H](CC(C)C)NC(=O)[C@H](CCCN)NC(=O)[C@H](Cc3ccc(OCC(=O)O)cc3)NC(=O)[C@H](Cc3ccc(-c4ccccc4)cc3)NC(=O)[C@H](Cc3ccc(OCC(=O)O)cc3)NC2=O)c1 [Compound 2240] ({CH2CO}-[Phe(4-CN)]Y(Carboxymethyl)D[Phe(3-Me)]Y(Carboxymethyl)[Bip]Y(Carboxymethyl)[Orn][dL][Dab][Cha][Val(3-OH)]SC[Dab][AEEA][Aun]-OH; thioether N-14)
15.6 nM	C#CC[C@H](NC(=O)COCCOCCNC(=O)[C@H](CCCN)NC(=O)[C@@H]1CSCC(=O)N[C@@H](Cc2ccncc2)C(=O)N[C@@H](Cc2ccc(OCC(=O)O)cc2)C(=O)N[C@@H](CC(=O)O)C(=O)N[C@@H](Cc2c[nH]c3ccccc23)C(=O)N[C@@H](C(C)C)C(=O)N[C@@H](Cc2ccc(-c3ccccc3)cc2)C(=O)N[C@@H]([C@@H](C)CC)C(=O)N[C@@H](CCCN)C(=O)N[C@H](CC(C)C)C(=O)N[C@@H](CCN)C(=O)N[C@@H](CC(C)C)C(=O)N[C@@H](C(C)C)C(=O)N[C@@H]([C@@H](C)O)C(=O)N1)C(=O)N[C@@H](CCN)C(=O)NCCCCCCCCCCC(=O)O [Compound 1200] ({CH2CO}-[4Pal]Y(Carboxymethyl)DWV[Bip]I[Orn][dL][Dab]LVTC[Orn][AEEA][Pra][Dab][Aun]-OH; thioether N-14)
